Data taken from patent US6596863B2, “Medical composition containing nitroetheneamine Derivative or salt there of as active constituent” (Ishihara Sangyo Kaisha, Ltd., priority 1998, dated 2003).
Where two headings read alike, the source gives them in different places.

What was measured:
[1] = biological target: T1, human MMP-7 (Homo sapiens, UniProt P09237); assay: Enzyme inhibition activity against MMP-7 (matrilysin), fluorescent peptide substrate NFF-2; type: biochemical; conditions: human MMP-7, substrate NFF-2, 37° C. for 2.5 hours
T1 construct: purchased Kabushiki Kaisha Yagai Chuo Kenkyusho YU-31001
T1 sequence (P09237 95-267): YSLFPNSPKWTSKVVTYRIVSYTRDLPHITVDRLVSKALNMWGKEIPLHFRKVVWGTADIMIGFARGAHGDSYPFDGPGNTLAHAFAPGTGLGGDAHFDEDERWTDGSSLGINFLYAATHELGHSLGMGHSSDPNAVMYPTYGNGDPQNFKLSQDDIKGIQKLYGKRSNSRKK
Experimental: The inhibition activity against human MMP-7 was measured by the same method as the method for MMP-3, by using a MMP-7 solution (0.025 unit/ml; No. YU-31001, manufactured by Kabushiki Kaisha Yagai Chuo Kenkyusho, purity: at least 99.9%) and a fluorescent peptide substrate MOCAc—Arg-Pro-Lys-Pro-Tyr—Ala-Nva-Trp-Met-Lys(Dnp) -NH2 [NFF-2, No. 3167-v, manufactured by Peptide Institute, Inc.]. The enzymatic reaction was carried out at 37° C. for 2.5 hours in a dark place, and the relative fluorescence intensity was measured at a fluorescence wavelength of 400 nm with an excitation wavelength of 327 nm.

[2] = biological target: T2, human MMP-9 (gelatinase B) (Homo sapiens, UniProt P14780); assay: Inhibition activity against human MMP-9 (gelatinase B), fluorescent peptide substrate; type: biochemical; conditions: compounds of the formula (I)
T2 construct: endogenous in cells; host or cells: HT1080 human fibrosarcoma cells (ATCC CCL-121), PMA-stimulated; enzyme purified from the culture supernatant
T2 sequence (P14780 107-707 limits assumed): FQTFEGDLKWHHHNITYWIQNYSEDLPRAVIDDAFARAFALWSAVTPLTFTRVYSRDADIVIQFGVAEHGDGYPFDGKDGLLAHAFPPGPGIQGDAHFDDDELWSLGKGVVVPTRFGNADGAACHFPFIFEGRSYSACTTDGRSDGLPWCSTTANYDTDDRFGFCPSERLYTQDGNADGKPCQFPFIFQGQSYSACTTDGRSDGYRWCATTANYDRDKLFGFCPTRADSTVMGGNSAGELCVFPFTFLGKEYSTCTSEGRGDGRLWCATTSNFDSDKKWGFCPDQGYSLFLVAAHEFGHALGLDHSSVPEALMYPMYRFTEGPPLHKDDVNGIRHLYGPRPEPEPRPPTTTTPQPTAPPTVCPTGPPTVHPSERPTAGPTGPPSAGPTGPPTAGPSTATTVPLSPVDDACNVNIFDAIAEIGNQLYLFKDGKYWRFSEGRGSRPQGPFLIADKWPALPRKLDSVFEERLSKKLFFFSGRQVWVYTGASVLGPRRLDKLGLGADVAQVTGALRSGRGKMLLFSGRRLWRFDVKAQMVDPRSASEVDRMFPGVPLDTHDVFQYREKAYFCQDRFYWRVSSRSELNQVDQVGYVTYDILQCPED
In short: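 MMP-9 purified from PMA-stimulated (10 ng/ml) HT1080 supernatant, or commercial enzyme (0.0125-0.025 unit/ml or 0.2 μg/ml final), incubated with compound and 10 μM final Mca-Pro-Leu-Gly-Leu-Dpa-Ala-Arg-NH2 fluorescent substrate at 37 °C for 3 h in the dark. Precursor enzyme activated with APMA.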

[3] = 1st measurement, read-out: MMP-9 inhibition activities IC50, 1st
[4] = 2nd measurement, read-out: MMP-9 inhibition activities IC50, 2nd
[5] = average of 1st and 2nd (or single measurement), read-out: MMP-9 inhibition activities IC50, Average

SMILES | IC50 [1] [µM] | IC50 [2, 3] [µM] | IC50 [2, 4] [µM] | IC50 [2, 5] [µM]
CCOCCOc1cc(C(F)(F)F)cc(NNC(=C[N+](=O)[O-])NS(C)(=O)=O)n1 [Compound No. 164, N-(1-(6-(2-ethoxyethoxy)-4-trifluoromethyl-2-pyridyl)hydrazino-2-nitroethenyl)methanesulfonamide] | 12 | 5.4 | 5.9 | 5.7
CCOCCOc1cc(C(F)(F)F)cc(NNC(=C[N+](=O)[O-])NC)n1 [Compound No. 107] | 18.7 | 8 | 7.4 | 7.7
CS(=O)(=O)NC(=C[N+](=O)[O-])NNc1cc(C(F)(F)F)cc(Cl)n1 [Compound No. 157, N-(1-(6-chloro-4-trifluoromethyl-2-pyridyl)hydrazino-2-nitroethenyl)methanesulfonamide] | 16.5 | 7.4 | 5.5 | 6.5
